Patent US20250034170A1, “SMALL MOLECULE MODULATORS OF GLUCOCEREBROSIDASE ACTIVITY AND USES THEREOF” (Vanqua Bio, Inc., priority 2021, published 2025)

The compounds below were run against T1, GCase (Homo sapiens, UniProt P04062) (assay: activation of GCase in a live cell PFB assay in HELA cells). Details: activation of GCase, EC50 ranges.
T1 construct: endogenous in cells; host or cells: HeLa cells
T1 sequence (P04062 40-536): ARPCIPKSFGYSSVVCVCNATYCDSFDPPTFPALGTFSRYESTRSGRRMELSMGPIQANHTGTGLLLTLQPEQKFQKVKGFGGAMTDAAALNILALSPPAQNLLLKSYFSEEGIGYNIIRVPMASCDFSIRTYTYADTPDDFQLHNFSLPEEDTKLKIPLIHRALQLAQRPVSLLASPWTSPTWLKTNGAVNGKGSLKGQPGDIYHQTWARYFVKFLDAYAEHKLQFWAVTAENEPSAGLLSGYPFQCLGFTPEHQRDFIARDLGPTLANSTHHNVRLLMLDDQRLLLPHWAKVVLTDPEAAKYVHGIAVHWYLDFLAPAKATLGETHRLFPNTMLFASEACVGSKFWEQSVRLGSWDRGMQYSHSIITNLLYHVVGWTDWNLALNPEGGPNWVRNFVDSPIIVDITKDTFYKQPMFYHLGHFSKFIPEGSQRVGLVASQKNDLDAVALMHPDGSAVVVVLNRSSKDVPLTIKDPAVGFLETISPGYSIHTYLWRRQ
Assay type: cell-based
Procedure: Exemplary compounds were evaluated for activation of GCase in a live cell PFB assay in HELA cells (essentially as described in Ysselstein et al., “LRRK2 kinase activity regulates lysosomal glucocerebrosidase in neurons derived from Parkinson's disease patients” Nature Communications (2019) 10:5570). […] EC50 ranges: A: <10 μM; B: >10-50 μM; C: >50-100 μM; D: >100 μM.

For COc1nn(CC(F)F)c2nc(N3CCC4(CC3)CC(=O)N(c3ccc(C(F)(F)F)nc3)C4)cnc12 [Cmpd 837], which EC50 is on record?
The EC50 was < 10 µM.

With O=C1N(c2nc(C(F)(F)F)co2)CCC12CCN(c1cnc3cnn(CC(F)F)c3n1)CC2 [Cmpd 838] as the compound, how does the EC50 read?
The EC50 was 10 to 50 µM.

Which EC50 does the source give for O=C1N(c2nnc(C(F)(F)F)o2)CCC12CCN(c1cnc3cnn(CC(F)F)c3n1)CC2 [Cmpd 839] here?
The EC50 was < 10 µM.

O=C1N(c2nnc(C(F)(F)F)s2)CCC12CCN(c1cnc3cnn(CC(F)F)c3n1)CC2 [Cmpd 840] was tested. Which EC50 did it give?
Its EC50 is < 10 µM.

O=C1N(c2cnc(C(F)(F)F)s2)CCC12CCN(c1cnc3cnn(CC(F)F)c3n1)CC2 [Cmpd 841] was tested. Which EC50 did it give?
The EC50 was < 10 µM.

With Cc1cnc(C(F)(F)F)nc1N1CCC2(CCN(c3cnc4cnn(CC(F)F)c4n3)CC2)C1=O [Cmpd 842] as the compound, how does the EC50 read?
The EC50 was 10 to 50 µM.

Which EC50 does the source give for O=C1N(Cc2cnc(C(F)(F)F)nc2)CCC12CCN(c1cnc3cnn(CC(F)F)c3n1)CC2 [Cmpd 843] here?
Its EC50 is 10 to 50 µM.

How did the EC50 turn out when O=C1N(Cc2ccnc(C(F)(F)F)n2)CCC12CCN(c1cnc3cnn(CC(F)F)c3n1)CC2 [Cmpd 844] was run?
The EC50 was < 10 µM.

With Cn1cc(N2CCC3(CCN(c4cnc5cnn(CC(F)F)c5n4)CC3)C2=O)ccc1=O [Cmpd 845] as the compound, how does the EC50 read?
Its EC50 is 10 to 50 µM.

With CCn1cc(N2CCC3(CCN(c4cnc5cnn(CC(F)F)c5n4)CC3)C2=O)ccc1=O [Cmpd 846] as the compound, how does the EC50 read?
The EC50 was 10 to 50 µM.

How did the EC50 turn out when CCn1nc(N2CCC3(CCN(c4cnc5cnn(CC(F)F)c5n4)CC3)C2=O)ccc1=O [Cmpd 847] was run?
The EC50 was 10 to 50 µM.

For CC(C)N1C(=O)N(c2ccc(C(F)(F)F)nc2)C(=O)C12CCN(c1cnc3cnn(CC(F)F)c3n1)CC2 [Cmpd 848], which EC50 is on record?
Its EC50 is 10 to 50 µM.

CCN1C(=O)N(c2ccc(C(F)(F)F)nc2)C(=O)C12CCN(c1cnc3cnn(CC(F)F)c3n1)CC2 [Cmpd 849] was tested. Which EC50 did it give?
The EC50 was < 10 µM.

CCN1C(=O)N(c2ccnc(C(F)(F)F)c2)C(=O)C12CCN(c1cnc3cnn(CC(F)F)c3n1)CC2 [Cmpd 850] was tested. Which EC50 did it give?
Its EC50 is < 10 µM.

CCC1N(c2ccc(C(F)(F)F)cn2)C(=O)CC12CCN(c1cnc3cnn(CC(F)F)c3n1)CC2 (stereo not drawn) [Cmpd 851] was tested. Which EC50 did it give?
Its EC50 is < 10 µM.

With CCC1N(c2ccc(C(F)(F)F)nc2)C(=O)CC12CCN(c1cnc3cnn(CC(F)F)c3n1)CC2 (stereo not drawn) [Cmpd 852] as the compound, how does the EC50 read?
Its EC50 is 10 to 50 µM.

For CCC1N(c2ccnc(C(F)(F)F)c2)C(=O)CC12CCN(c1cnc3cnn(CC(F)F)c3n1)CC2 (stereo not drawn) [Cmpd 853], which EC50 is on record?
The EC50 was 10 to 50 µM.

With CC[C@H]1N(c2ccnc(C(F)(F)F)c2)C(=O)CC12CCN(c1cnc3cnn(CC(F)F)c3n1)CC2 [Cmpd 854] as the compound, how does the EC50 read?
Its EC50 is 10 to 50 µM.

For CC[C@@H]1N(c2ccnc(C(F)(F)F)c2)C(=O)CC12CCN(c1cnc3cnn(CC(F)F)c3n1)CC2 [Cmpd 855], which EC50 is on record?
Its EC50 is 10 to 50 µM.

O=C1CC2(CCN(c3cnc4cnn(C5COC5)c4n3)CC2)CN1c1ccc(C(F)(F)F)nc1 [Cmpd 856] was tested. Which EC50 did it give?
The EC50 was 10 to 50 µM.

O=C1CC2(CCN(c3cnc4cnn(C5COC5)c4n3)CC2)CN1c1ccc(C(F)(F)F)cn1 [Cmpd 857] was tested. Which EC50 did it give?
Its EC50 is < 10 µM.

For CCC1N(c2ccc(C(F)(F)F)nc2)C(=O)CC12CCN(c1cnc3cnn(C4COC4)c3n1)CC2 (stereo not drawn) [Cmpd 858], which EC50 is on record?
The EC50 was 10 to 50 µM.

With CCC1N(c2ccc(C(F)(F)F)cn2)C(=O)CC12CCN(c1cnc3cnn(C4COC4)c3n1)CC2 (stereo not drawn) [Cmpd 859] as the compound, how does the EC50 read?
The EC50 was 10 to 50 µM.

For CCN1C(=O)N(c2cnc3cnn(CC(F)F)c3n2)C(=O)C12CCN(c1ccc(C(F)(F)F)cn1)CC2 [Cmpd 860], which EC50 is on record?
The EC50 was 10 to 50 µM.

Which EC50 does the source give for CCN1C(=O)N(c2cnc3cnn(CC(F)F)c3n2)C(=O)C12CCN(c1ccc(C(F)(F)F)nc1)CC2 [Cmpd 861] here?
Its EC50 is < 10 µM.

Which EC50 does the source give for O=C1CC2(CCN(c3cnc4cnn(C5COC5)c4n3)CC2)CN1c1cnc(C(F)(F)F)cn1 [Cmpd 862] here?
Its EC50 is > 100 µM.

How did the EC50 turn out when O=C1C[C@@]2(CC3CCC2CN3c2cnc3cnn(CC(F)F)c3n2)CN1c1ccc(C(F)(F)F)cn1 (stereo partly drawn) [Cmpd 863] was run?
Its EC50 is < 10 µM.

With O=C1C[C@]2(CC3CCC2CN3c2cnc3cnn(CC(F)F)c3n2)CN1c1ccc(C(F)(F)F)cn1 (stereo partly drawn) [Cmpd 864] as the compound, how does the EC50 read?
The EC50 was 10 to 50 µM.

Which EC50 does the source give for O=C1CC2(CC3CCC2CN3c2cnc3cnn(CC(F)F)c3n2)CN1c1ccc(C(F)(F)F)nc1 (stereo not drawn) [Cmpd 865] here?
Its EC50 is 10 to 50 µM.

Which EC50 does the source give for CCN1C(=O)N(c2ccc(C(F)(F)F)nc2)C(=O)C12CCN(c1cnc3cnn(C4COC4)c3n1)CC2 [Cmpd 866] here?
Its EC50 is 10 to 50 µM.

For CC(C)N1C(=O)N(c2ccc(C(F)(F)F)nc2)C(=O)C12CCN(c1cnc3cnn(C4COC4)c3n1)CC2 [Cmpd 867], which EC50 is on record?
The EC50 was > 100 µM.

With CCN1C(=O)N(c2ccc(C(F)(F)F)cc2)C(=O)C12CCN(c1cnc3cnn(CC(F)F)c3n1)CC2 [Cmpd 868] as the compound, how does the EC50 read?
The EC50 was 10 to 50 µM.

Which EC50 does the source give for CCN1C(=O)N(c2ccc(C(F)(F)F)cc2)C(=O)C12CCN(c1cnc3cnn(C4COC4)c3n1)CC2 [Cmpd 869] here?
Its EC50 is 10 to 50 µM.

How did the EC50 turn out when CCN1C(=O)N(c2ccc(C(F)(F)F)nc2)C(=O)C12CCN(c1cnc3c(C)nn(C4COC4)c3n1)CC2 [Cmpd 870] was run?
The EC50 was > 100 µM.

CCN1C(=O)N(c2ccc(C(F)(F)F)nc2)C(=O)C12CCN(c1cnc3c(C)nn(CC(F)F)c3n1)CC2 [Cmpd 871] was tested. Which EC50 did it give?
The EC50 was 10 to 50 µM.

Which EC50 does the source give for CCN1C(=O)N(c2ccc(C(F)(F)F)cc2)C(=O)C12CCN(c1cnc3c(C)nn(CC(F)F)c3n1)CC2 [Cmpd 872] here?
Its EC50 is < 10 µM.

How did the EC50 turn out when CCN1C(=O)N(c2ccc(C(F)(F)F)nc2)C(=O)C12CCN(c1ncc3cnn(CC(F)F)c3n1)CC2 [Cmpd 873] was run?
The EC50 was 10 to 50 µM.

For CCN1C(=O)N(c2ccc(C(F)(F)F)nc2)C(=O)C12CCN(c1ncc3c(C)nn(CC(F)F)c3n1)CC2 [Cmpd 874], which EC50 is on record?
Its EC50 is < 10 µM.

For O=C1N(c2ccc(C(F)(F)F)nc2)C(=O)C2(CCN(c3ncc4cnn(CC(F)F)c4n3)CC2)N1CC(F)F [Cmpd 875], which EC50 is on record?
Its EC50 is < 10 µM.

For O=C1N(c2ccc(C(F)(F)F)nc2)C(=O)C2(CCN(c3cnc4cnn(CC(F)F)c4n3)CC2)N1CC(F)F [Cmpd 876], which EC50 is on record?
Its EC50 is 10 to 50 µM.

Which EC50 does the source give for O=C1N(c2ccc(C(F)(F)F)nc2)C(=O)C2(CCN(c3cnc4cnn(CC(F)F)c4n3)CC2)N1CCOC(F)(F)F [Cmpd 877] here?
The EC50 was < 10 µM.

With CCN1C(=O)N(c2ccc(C(F)(F)F)nc2)C(=O)C12CCN(c1ncc3c(C)nn(C4COC4)c3n1)CC2 [Cmpd 878] as the compound, how does the EC50 read?
The EC50 was 10 to 50 µM.

CN1C(=O)N(c2ccc(C(F)(F)F)nc2)C(=O)C12CCN(c1cnc3cnn(CC(F)F)c3n1)CC2 [Cmpd 879] was tested. Which EC50 did it give?
Its EC50 is < 10 µM.

Which EC50 does the source give for O=C1N(c2ccc(C(F)(F)F)nc2)C(=O)C2(CCN(c3cnc4cnn(CC(F)F)c4n3)CC2)N1CCC1CC1 [Cmpd 880] here?
Its EC50 is < 10 µM.

For O=C1N(c2ccc(C(F)(F)F)nc2)C(=O)C2(CCN(c3cnc4cnn(CC(F)F)c4n3)CC2)N1CCCC(F)(F)F [Cmpd 881], which EC50 is on record?
Its EC50 is < 10 µM.

For O=C1N(c2ccc(C(F)(F)F)nc2)C(=O)C2(CCN(c3cnc4cnn(CC(F)F)c4n3)CC2)N1Cc1cncc(F)c1 [Cmpd 883], which EC50 is on record?
Its EC50 is 10 to 50 µM.

Which EC50 does the source give for Cc1nn(C2COC2)c2nc(N3CCC4(CC3)CCN(c3ccc(C(F)(F)F)nc3)C4=O)ncc12 [Cmpd 884] here?
The EC50 was 10 to 50 µM.

For Cc1nn(C2COC2)c2nc(N3CCC4(CC3)CCN(c3ccc(C(F)(F)F)nc3)C4=O)cnc12 [Cmpd 885], which EC50 is on record?
Its EC50 is 10 to 50 µM.

With O=C1N(c2ccc(C(F)(F)F)nc2)CCC12CCN(c1cnc3cnn(C4COC4)c3n1)CC2 [Cmpd 886] as the compound, how does the EC50 read?
The EC50 was 10 to 50 µM.

Cc1nn(C2COC2)c2nc(N3CCC4(CCN(c5ccc(C(F)(F)F)nc5)C4)CC3)ncc12 [Cmpd 887] was tested. Which EC50 did it give?
Its EC50 is 10 to 50 µM.

Cc1nn(C2COC2)c2nc(N3CCC4(CCN(c5ccc(C(F)(F)F)nc5)C4)CC3)cnc12 [Cmpd 888] was tested. Which EC50 did it give?
Its EC50 is < 10 µM.

Which EC50 does the source give for CCn1ncc2cnc(N3CCC4(CC3)CC(=O)N(c3ccc(C(F)(F)F)nc3)C4)nc21 [Cmpd 889] here?
Its EC50 is < 10 µM.

How did the EC50 turn out when CCn1ncc2ncc(N3CCC4(CC3)CC(=O)N(c3ccc(C(F)(F)F)nc3)C4)nc21 [Cmpd 890] was run?
The EC50 was < 10 µM.

How did the EC50 turn out when O=C1CC2(CCN(c3cnc4cnn(CC(F)F)c4n3)CC2)CN1c1ccc(Cl)nc1 [Cmpd 891] was run?
Its EC50 is 10 to 50 µM.
